Results reported in US9145382B2, “Organic compound and electrochromic device using the same” (CANON KABUSHIKI KAISHA, priority 2014, dated 2015).

Key:
Assay type in all cases: physicochemical
[1] = Absorption spectrum in the oxidized (colored) state, oxidation at constant potential; details: 5.0×10^−4 mol/L in 0.1 mol/L tetrabutylammonium perchlorate in propylene carbonate
Procedure: Next, the absorption spectra in the oxidized (colored) state were measured. Specifically, the absorption spectra were measured using a measuring cell provided with a work electrode, a counter electrode, a reference electrode and a liquid tank. Here, the electrodes provided in the measuring cell and the solute and solvent which are contained in the solution charged to the liquid tank will be shown below.
(§1) Counter electrode: Platinum
(§2) Reference electrode: Silver
Solute: Evaluation target compounds (illustrated compounds A-1 and A-3)
Solvent (supporting electrolyte): Solution of tetrabutylammonium perchlorate in propylene carbonate (0.1 mol/L)
(Note that the concentration of the solution charged to the liquid tank is 5.0×10^−4 mol/L.)
A compound was subjected to oxidation at a constant potential by applying a potential equal to or higher than the oxidation potential of the compound using the measuring cell to thereby measure the change in the absorption spectra and transmittance spectra. Here, the absorption peak wavelength in the colored state (oxidized state) and the absorption peak wavelength in the bleached state (neutral state) are shown in the following Table 3.

[2] = Durable stability against oxidation-reduction cycle (square-wave potential program, CV oxidation peak current); details: for Durability evaluation: change in oxidation peak current (CV) before and after 10000 oxidation-reduction cycles, 1.0×10^−4 mol/L in 0.1 mol/L tetrabutylammonium perchlorate in dichloroethane
Procedure: The durable stability against the oxidation-reduction cycle of the organic EC compound according to the present invention was evaluated. Specifically, the durability against repetition of an oxidation-reduction was evaluated using the illustrated compound A-1, the illustrated compound A-3 and Ref-1 as evaluation targets.
The measurement of durability against repetition of an oxidation-reduction was performed using a solution prepared by dissolving each compound in a predetermined solvent as a target sample, using a measuring apparatus provided with a work electrode, a counter electrode and a reference electrode. Here, the electrodes provided in the measuring apparatus and the solvent used will be shown below.
Work electrode: Glassy carbon
as §1, §2
Supporting electrolyte (solvent): Solution of tetrabutylammonium perchlorate in dichloroethane (0.1 mol/L)
Solution concentration: 1.0×10^−4 mol/L
The above solution was subjected to a square-wave potential program including oxidation at a constant potential and reduction at a constant potential for 10000 times. Here, the oxidation at a constant potential is a process of applying a potential equal to or higher than the oxidation potential of a target compound to the above solution for 10 seconds, and the reduction at a constant potential is a process of applying a potential of 0 V based on the reference electrode (Ag/Ag^+) to the above solution for 10 seconds.
The durability against repetition of an oxidation-reduction was evaluated based on the change in the amount of oxidation peak current in cyclic voltammetry (CV) measurement before and after the oxidation-reduction cycles for 10000 times. Specifically, when the rate of change in the amount of oxidation peak current was less than 20%, the durability was evaluated as Good, and when the rate of change was 20% or more, the durability was evaluated as Poor.

[3] = Absorption spectrum in the neutral (bleached) state, UV-visible spectrophotometer; details: in chloroform
Procedure: The illustrated compound A-1 obtained was dissolved in chloroform, and the resulting solution was measured using an ultraviolet and visible spectrophotometer (V-560 manufactured by JASCO Corporation). As a result, an absorption spectrum illustrated in FIG. 6 was obtained.
Solutions prepared by dissolving compounds synthesized in Examples in chloroform were measured for the absorption spectra in the neutral state (bleached state) using an ultraviolet and visible spectrophotometer (V-560 manufactured by JASCO Corporation).

[4] = Measurement of solubility in propylene carbonate; details: for solubility: organic solvent or mixture
Text: [Measurement of Solubility in Propylene Carbonate]
Note that propylene carbonate is a solvent contained in the electrochromic layer constituting the EC device. Further, Ref-1 is a compound in which methyl groups having no ethylene oxide chains are substituted at the 3-position and the 4-position of the thiophene ring, and substituents (substituents corresponding to A1 and A2 in general formula [1]) at the ortho positions of the phenyl group bonded to the thiophene ring are hydrogen atoms (no substitution).

Oxidized absorption λmax′ [1] | Neutral absorption λmax ([3]; neutral (bleached) state) | Compound | Durability evaluation [2] | absorption in the visible light region (neutral state) [3] | solubility [4] | number of oxidation-reduction cycles after which the amount of oxidation peak current was decreased by 20% ([2]; square-wave potential program, 10 s oxidation / 10 s reduction) | appearance of solution when a concentration of 6 mM was going to be prepared ([4]; 6 mM)
415.8 nm | 282.0 nm | COCCOCc1c(-c2c(OC)cccc2OC(C)C)sc(-c2c(OC)cccc2OC(C)C)c1COCCOC [A-1] | Good (when the rate of change in the amount of oxidation peak current was less than 20%, the durability was evaluated as Good) | does not have absorption over the whole visible light region | ≥ 150 mM |  | 
 |  | Cc1c(-c2ccccc2)sc(-c2ccccc2)c1C [Ref-1] | Poor (when the rate of change was 20% or more, the durability was evaluated as Poor) |  | < 6 mM | about 2400 times | turbid
